Measurements as given in patent EP0677039B1, “CYCLOBUTANE DERIVATIVES AS INHIBITORS OF […] SYNTHETASE AND PROTEIN […]” (Abbott Laboratories, priority 1993, dated 1995).

target: T1, Rat liver microsomal squalene synthetase (Rattus norvegicus, UniProt Q02769); assay: In vitro inhibition of squalene synthetase; format: biochemical; conditions: 10 µM test compound; rat liver microsomes, labelled farnesyl pyrophosphate, 10 minutes at 37 °C; compared to controls with no test compound
T1 construct: Rat liver microsome, the source of enzyme; from tissue; host or cells: rat liver microsomes
T1 sequence (Q02769 1-416): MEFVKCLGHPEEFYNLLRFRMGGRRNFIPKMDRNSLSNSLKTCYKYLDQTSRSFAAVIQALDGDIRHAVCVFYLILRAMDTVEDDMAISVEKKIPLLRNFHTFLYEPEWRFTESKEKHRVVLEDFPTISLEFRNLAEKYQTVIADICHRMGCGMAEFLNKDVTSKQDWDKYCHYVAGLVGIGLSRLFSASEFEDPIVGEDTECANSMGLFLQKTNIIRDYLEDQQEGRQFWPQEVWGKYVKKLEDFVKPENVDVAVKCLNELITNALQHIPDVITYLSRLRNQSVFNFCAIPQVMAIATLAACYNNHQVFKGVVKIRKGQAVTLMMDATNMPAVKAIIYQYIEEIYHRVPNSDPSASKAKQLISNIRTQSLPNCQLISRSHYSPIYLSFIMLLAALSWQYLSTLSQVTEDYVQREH
Method: In vitro inhibition of squalene synthetase may be measured by the following procedure. Rat liver microsomal squalene synthetase activity was measured using farnesyl pyrophosphate as a substrate and quantitating squalene synthesis using labelled farnesyl pyrophosphate and counting the squalene formed. Rat liver microsome, the source of enzyme, was prepared according to the method of Gillies, P. J., et al., Exp. Molc. Pathol. 44: 329-339 (1986), a modification of the procedure of Erickson, S. K., and Cooper, A. D., Metabolism, 29: 991-996 (1980). […] Oxygen was excluded from the closed incubation tube by degassing with nitrogen. The reaction was terminated by the addition of ethanolic KOH and after degassing with N2, the microsomal membranes were solubilized by heating at 60 °C for 30 minutes. The squalene was extracted into hexane, and the squalene was separated from all other radioactive molecules by passage over an activated alumina column. […] The per cent inhibition at a dose of 10 µM (or 1 µM) compared to controls with no test compound was determined. […]

Compound | inhibition at 10 µM [%]
CN(Cc1cccc(Oc2ccc(F)cc2)c1)C(=O)[C@H]1[C@@H](C(=O)O)[C@H](C(=O)O)[C@@H]1C(=O)N(C)Cc1cccc(Oc2ccc(F)cc2)c1 [Example 21, (1α,2β,3β,4α)-1,2-Di[N-methyl-N-(3-[4-fluorophenoxy]benzyl)aminocarbonyl]cyclobutane-3,4-dicarboxylic acid] | 52
CCCN(Cc1ccc(Cc2ccccc2)cc1)C(=O)[C@H]1[C@@H](C(=O)O)[C@H](C(=O)O)[C@@H]1C(=O)N(CCC)Cc1ccc(Cc2ccccc2)cc1 [Example 25, (1α,2β,3β,4α)-1,2-Di[N-propyl-N-(4-benzylbenzyl)aminocarbonyl]cyclobutane-3,4-dicarboxylic acid] | 84
CCCN(CCc1ccc(Oc2ccccc2)cc1)C(=O)[C@H]1[C@@H](C(=O)O)[C@H](C(=O)O)[C@@H]1C(=O)N(CCC)CCc1ccc(Oc2ccccc2)cc1 [Example 38H, (1α,2β,3β,4α)-1,2-Di[N-propyl-N-(2-(4-phenoxyphenyl)ethyl)aminocarbonyl]cyclobutane-3,4-dicarboxylic acid] | 51
O=C(O)[C@H]1[C@H](C(=O)O)[C@H](C(=O)N(Cc2ccc(Oc3ccccc3)cc2)Cc2ccc(Oc3ccccc3)cc2)[C@H]1C(=O)N(Cc1ccc(Oc2ccccc2)cc1)Cc1ccc(Oc2ccccc2)cc1 [Example 19, (1α,2β,3β,4α)-1,2-Di[N,N-di(4-phenoxybenzyl)aminocarbonyl]cyclobutane-3,4-dicarboxylic acid] | 86
C[C@@H](c1ccccc1)N(Cc1ccc(Oc2ccccc2)cc1)C(=O)[C@H]1[C@@H](C(=O)O)[C@H](C(=O)O)[C@@H]1C(=O)N(Cc1ccc(Oc2ccccc2)cc1)[C@@H](C)c1ccccc1 [Example 34] | 89
CCCN(Cc1ccc(Oc2ccccc2)c(C)c1)C(=O)C1C(C(=O)O)C(C(=O)O)C1C(=O)N(CCC)Cc1ccc(Oc2ccccc2)c(C)c1 (stereo not drawn) [Example 89C, (1α,2β,3β,4α)-1-2-Di{N-propyl-[3-methyl-4-phenoxybenzyl]aminocarbonyl}cyclobutane-3,4-dicarboxylic acid] | 88

same assay, conditions: values marked * in Table 1: 1 µM test compound; rat liver microsomes, labelled farnesyl pyrophosphate, 10 minutes at 37 °C

Compound | inhibition at 1 µM [%]
O=C(O)C1C(C(=O)O)C(C(=O)N(Cc2ccc(Oc3ccccc3)cc2)Cc2ccco2)C1C(=O)N(Cc1ccc(Oc2ccccc2)cc1)Cc1ccco1 (stereo not drawn) [Example 44, (1α,2β,3β,4α)-1,2-Di[N-(furan-2-ylmethyl)-N-(4-phenoxybenzyl)aminocarbonyl)cyclobutane-3,4-dicarboxylic acid] | 56
CCCN(Cc1ccc(Oc2ccccc2)cc1)C(=O)C1C(C(=O)O)C(c2nn[nH]n2)C1C(=O)N(CCC)Cc1ccc(Oc2ccccc2)cc1 (centres unmarked) [Example 72C] | 51
CCCN(Cc1ccc(Oc2ccccc2)cc1)C(=O)C1C(NC(=O)CCC(=O)O)C(C(=O)O)C1C(=O)N(CCC)Cc1ccc(Oc2ccccc2)cc1 (stereo not drawn) [Example 75B, (1α,2β,3β,4α)-1,2-Di[N-propyl-N-(4-phenoxybenzyl)aminocarbonyl]-4-(3-carboxypropionylamino)cyclobutane-3-carboxylic acid] | 73
CSCCN(Cc1ccc(Oc2ccccc2)cc1)C(=O)C1C(C(=O)O)C(C(=O)O)C1C(=O)N(CCSC)Cc1ccc(Oc2ccccc2)cc1 (stereo not drawn) [Example 41B, (1α,2β,3β,4α)-1,2-Di[N-(2-methylthioethyl)-N-(4-phenoxybenzyl)aminocarbonyl]cyclobutane-3,4-dicarboxylic acid] | 72

same assay, conditions: values marked * in Table 1: 1 µM test compound; rat liver microsomes, labelled farnesyl pyrophosphate, 10 minutes at 37 °C; 1 µM

Compound | % Inhibition at 1 µM
CCCCC(NC(=O)[C@@H]1[C@@H](C(=O)O)[C@@H](C(=O)N(CCC)Cc2ccc(Oc3ccccc3)cc2)[C@@H]1C(=O)N(CCC)Cc1ccc(Oc2ccccc2)cc1)C(=O)O (single isomer, unassigned) [Example 104B, (1α,2β,3β,4α)-1,2-Di[N-propyl-N-(4-phenoxybenzyl)aminocarbonyl]cyclobutane-3,4-dicarboxylic acid Mono-Norleucine Amide] | 71* %
